Values of other authors, collected in patent US20060099690A1, “Extraction, purification and conversion of flavonoids from plant biomass” (Her Majesty the Queen in Right of Canada, as Repre, priority 2002, published 2006).

Key:
[1] = system: mouse hippocampal cell line HT-22 and rat primary neurons; conditions: HT-22 cells and rat primary neurons
[2] = four hours after a meal; hydrolyzed plasma; 3'- and 4'-methylquercetin
pain transmission = conditions: antinociceptive activity
serum triglycerides = conditions: 0.5% quercetin in diet; mice or rats

Structure (SMILES) | protection from oxidative stress caused by glutamate [1] | total concentration of metabolites in the plasma [2] | dose with the same effect as 2.5 mg of morphine sulfate/Kg (pain transmission) [mg/Kg body weight] | effect on serum triglycerides (serum triglycerides)
O=c1cc(-c2ccc(O)cc2)oc2cc(O)cc(O)c12 [apigenim] | inactive | – | – | –
O=c1c(O)c(-c2ccc(O)c(O)c2)oc2cc(O)ccc12 [fisetin] | quite protective | – | – | –
O=c1c(O[C@@H]2O[C@H](CO)[C@@H](O)[C@H](O)[C@H]2O)c(-c2ccc(O)c(O)c2)oc2cc(O)cc(O)c12 [isoquercitrin, quercetin-3-O-beta glycoside] | – | 33.2 µM | – | –
O=c1c(O)c(-c2ccc(O)cc2)oc2cc(O)cc(O)c12 [kaempferol] | quite protective | – | – | –
O=c1c(O)c(-c2ccc(O)c(O)c2)oc2cc(O)cc(O)c12 [quercetin] | quite protective | 11.2 µM | 50 | significant lowering
C[C@@H]1O[C@@H](Oc2c(-c3ccc(O)c(O)c3)oc3cc(O)cc(O)c3c2=O)[C@H](O)[C@H](O)[C@H]1O [quercitrin, quercetin 3-rhamnoside, reference compound] | – | failed to detect any metabolites | – | –
C[C@@H]1O[C@@H](OC[C@H]2O[C@@H](Oc3c(-c4ccc(O)c(O)c4)oc4cc(O)cc(O)c4c3=O)[C@H](O)[C@@H](O)[C@@H]2O)[C@H](O)[C@H](O)[C@H]1O [rutin] | – | 2.5 µM | – | –
